Key:
[1] = tested on: TAT reactive rat vascular smooth muscle cell clones; assay: Cell proliferation potency by TAT after GPC3 knockdown with shRNA adenovirus ([methyl 3H] thymidine uptake); type: cell-based; settings: adenovirus infection at MOI=10; compared to cells infected GFPi or LacZ used as a control; FIG. 3
Procedure: Adenovirus carrying GFPi or GPC3i was added to cells on a 10 cm laboratory dish at infectious MOI=10 to infect. The cells were moved on a 24-well plate 1 day after infection and cultured under the absence of blood serum for 24 hours. After that, thymidine taken in cells by the stimulus of TAT was measured.
Each of adenovirus inserted shRNA of Glypican 3 (GPC3) (GPC3i), adenovirus inserted shRNA of Green fluorescent protein (GFP) (GFPi) and adenovirus not inserted shRNA (LacZ) was infected to TAT reactive rat vascular smooth muscle cell clones. Cell proliferation potency by TAT was measured by uptake of [methyl 3H] thymidine according an experiment method.

[2] = tested on: vascular smooth muscle cells; assay: Proliferation reaction of vascular smooth muscle cells by human TAT ([methyl 3H] thymidine uptake); type: cell-based, rat; settings: serum-free; only some (TAT reactive) vascular smooth muscle cells respond
Procedure: Vascular smooth muscle cells were plated in a 96-well plate at a density of 2×10^3/well and cultured under the same condition as Example 1. After 3 days, the medium was changed with DMEM containing 0.05% bovine serum albumin. After culturing for one more day, the medium was changed again with new DMEM containing 0.05% bovine serum albumin and TAT was added thereto. After 20 hours from addition of TAT, 0.05 μCi/well [methyl 3H] thymidine was added thereto and the cells were cultured for 2 hours. After washing cells twice with 5% trichloroacetic acid, Super mix (PerkinElmer, Inc.) was added thereto and radioactivity derived from [methyl 3H] thymidine taken in cells was measured by Micro Beta (PerkinEimer, Inc.) (FIG. 1).

Substance: GPC3i: adenovirus inserted shRNA of Glypican 3 (GPC3), sequence SEQ ID: 2 (guide GAACTACACCAATGCCATGTT)
- cell proliferation by stimulus of TAT [1]: remarkably decreased

Substance: thrombin-antithrombin III complex [TAT]
- proliferation of vascular smooth muscle cells [2]: proliferate some cells of vascular smooth muscle cells at very low concentration

Source: US7759083B2, “Screening method for a growth inhibitor or promoter of a vascular smooth muscle cell” (Shionogi & Co., Ltd., priority 2004, dated 2010)
